# Measured values taken from article PMC11421834 (European journal of medicinal chemistry, 2024).
# Assays:
# FLT3 = target: T1, FLT3 (Homo sapiens, UniProt P36888); assay: FLT3 enzyme assay, single concentration; details: read-out: FLT3 (% Inh.)
# T1 sequence (P36888 27-993): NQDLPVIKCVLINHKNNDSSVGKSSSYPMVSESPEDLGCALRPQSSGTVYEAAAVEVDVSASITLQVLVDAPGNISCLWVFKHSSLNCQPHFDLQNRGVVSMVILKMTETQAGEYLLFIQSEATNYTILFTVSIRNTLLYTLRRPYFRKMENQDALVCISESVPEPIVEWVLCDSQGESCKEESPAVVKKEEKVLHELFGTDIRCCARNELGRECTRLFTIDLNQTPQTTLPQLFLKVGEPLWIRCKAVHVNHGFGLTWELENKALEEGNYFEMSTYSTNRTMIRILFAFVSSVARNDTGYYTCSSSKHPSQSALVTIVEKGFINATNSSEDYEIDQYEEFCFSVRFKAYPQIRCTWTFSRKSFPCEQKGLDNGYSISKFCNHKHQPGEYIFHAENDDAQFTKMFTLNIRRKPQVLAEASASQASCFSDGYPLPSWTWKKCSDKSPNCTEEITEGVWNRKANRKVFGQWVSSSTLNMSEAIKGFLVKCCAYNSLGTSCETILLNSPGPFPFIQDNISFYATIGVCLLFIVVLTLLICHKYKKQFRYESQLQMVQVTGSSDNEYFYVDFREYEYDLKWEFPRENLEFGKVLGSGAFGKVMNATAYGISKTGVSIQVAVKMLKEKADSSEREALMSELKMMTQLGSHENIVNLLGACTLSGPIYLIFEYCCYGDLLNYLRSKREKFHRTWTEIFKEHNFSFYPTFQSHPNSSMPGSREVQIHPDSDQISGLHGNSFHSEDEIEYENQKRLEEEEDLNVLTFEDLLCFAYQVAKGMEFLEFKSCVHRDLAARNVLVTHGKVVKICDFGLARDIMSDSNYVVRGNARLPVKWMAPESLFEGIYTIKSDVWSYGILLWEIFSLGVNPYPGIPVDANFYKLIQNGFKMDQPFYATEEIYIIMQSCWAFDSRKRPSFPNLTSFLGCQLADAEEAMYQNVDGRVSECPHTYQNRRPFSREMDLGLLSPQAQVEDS
# TRKC = TRKC (Homo sapiens, UniProt Q16288); assay: TRKC enzyme assay, single concentration; details: Percentage inhibition at 0.5 μM (n = 2); ATP 10 μM
# Sequence of TRKC (Q16288 32-839): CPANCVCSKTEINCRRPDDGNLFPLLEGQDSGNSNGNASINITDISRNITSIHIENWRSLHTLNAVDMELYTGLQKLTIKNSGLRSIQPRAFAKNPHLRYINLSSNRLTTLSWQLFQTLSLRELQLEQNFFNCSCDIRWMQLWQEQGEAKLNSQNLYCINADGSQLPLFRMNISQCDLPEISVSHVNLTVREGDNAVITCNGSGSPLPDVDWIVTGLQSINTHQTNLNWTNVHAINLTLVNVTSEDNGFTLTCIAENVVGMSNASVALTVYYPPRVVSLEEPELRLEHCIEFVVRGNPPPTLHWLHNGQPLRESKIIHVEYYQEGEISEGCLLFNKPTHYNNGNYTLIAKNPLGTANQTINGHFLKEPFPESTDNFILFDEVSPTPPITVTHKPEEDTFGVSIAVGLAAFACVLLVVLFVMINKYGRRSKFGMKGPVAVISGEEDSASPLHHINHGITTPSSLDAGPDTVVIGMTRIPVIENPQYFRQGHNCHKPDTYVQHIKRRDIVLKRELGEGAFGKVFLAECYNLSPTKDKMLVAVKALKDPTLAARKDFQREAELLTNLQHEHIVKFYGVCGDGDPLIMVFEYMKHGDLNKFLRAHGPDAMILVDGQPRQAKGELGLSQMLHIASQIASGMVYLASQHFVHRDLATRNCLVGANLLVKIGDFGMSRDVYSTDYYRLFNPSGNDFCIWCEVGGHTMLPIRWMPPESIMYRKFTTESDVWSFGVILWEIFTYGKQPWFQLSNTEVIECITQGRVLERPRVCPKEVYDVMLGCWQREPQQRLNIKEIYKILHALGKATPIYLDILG
# over 400 kinases = assay: KinomeSCAN kinome profiling at 1 μM; format: binding; details: for >90: Number of kinases inhibited above 90%: KinomeSCAN at 1 μM across over 400 kinases
Molecule,>90: Number of kinases inhibited above 90% (over 400 kinases),also measured
"COc1ccsc1C(=O)Nc1ccc2c(c1)/C(=C/c1cnc[nH]1)C(=O)N2 [Compound 119, (Z)-N-(3-((1H-imidazole-5-yl)methylene)-2-oxoindolin-5-yl)-3-methoxythiophene-2-carboxamide]",,inhibition at 0.5 µM (FLT3): 80%
"(3Z)-3-(1H-pyrazol-5-ylmethylidene)-2,3-dihydro-1H-indol-2-one [Compound 8]",,TRKC (% Inh.) (TRKC): 92%
O=C1Cc2cc(NC(=O)c3cc4sccc4s3)ccc2N1 [Compound 111],15,
"O=C1Nc2ccc(NC(=O)c3ccccc3)cc2/C1=C/c1ccc[nH]1 [Compound 72, N-[(3Z)-2-oxo-3-(1H-pyrrol-2-ylmethylidene)-2,3-dihydro-1H-indol-5-yl]benzamide]",10,
"O=C1Nc2ccc(NC(=O)c3ccccc3)cc2/C1=C/c1cnc[nH]1 [Compound 73, N-[(3Z)-3-(1H-imidazole-5-ylmethylidene)-2-oxo-2,3-dihydro-1H-indol-5-yl]benzamide]",9,
"O=C1Nc2ccc(NC(=O)c3ccccc3)cc2/C1=C/c1ncc[nH]1 [Compound 74, N-[(3Z)-3-(1H-imidazole-2-ylmethylidene)-2-oxo-2,3-dihydro-1H-indol-5-yl]benzamide]",11,
"COc1ccc2c(c1)/C(=C/c1cnc[nH]1)C(=O)N2 [Compound 1, (3Z)-3-[(1H-imidazole-5-yl)methylidene]-5-methoxy-2,3-dihydro-1H-indol-2-one]",15,
"3-ethoxy-N-[(3Z)-3-[(1H-imidazole-5-yl)methylidene]-2-oxo-2,3-dihydro-1H-indol-5-yl]thiophene-2-carboxamide [Compound 120]",,TRKC (% Inh.) (TRKC): 92%
"O=C1Nc2ccc(C(=O)c3ccccc3)cc2/C1=C/c1cnc[nH]1 [Compound 44, (3Z)-5-benzoyl-3-(1H-imidazole-5-ylmethylidene)-2,3-dihydro-1H-indol-2-one]",15,
"Cc1nc[nH]c1/C=C1\C(=O)Nc2ccc(NC(=O)c3ccccc3)cc21 [Compound 128, N-[(3Z)-3-[(4-methyl-1H-imidazole-5-yl)methylidene]-2-oxo-2,3-dihydro-1H-indol-5-yl]benzamide]",11,
"COc1ccccc1C(=O)Nc1ccc2c(c1)/C(=C/c1ncc[nH]1)C(=O)N2 [Compound 97, N-[(3Z)-3-(1H-imidazole-2-ylmethylidene)-2-oxo-2,3-dihydro-1H-indol-5-yl]-2-methoxybenzamide]",7,
"CC(=O)c1ccc2c(c1)/C(=C/c1ccc[nH]1)C(=O)N2 [Compound 27, (3Z)-5-acetyl-3-(1H-pyrrol-2-ylmethylidene)-2,3-dihydro-1H-indol-2-one]",62,"S(10) (over 400 kinases; KinomeSCAN at 1 μM, selectivity score): 0.154"
